Test results as given in patent publication US4198506A, “2-Carboxyalkyl-2,3-dihydro-6-mercapto-s-triazolo[4,3-b]-pyridazin-3-ones” (Bristol-Myers Company, priority 1979, dated 1980).
In brackets after ≈: the same amount, converted by molar mass. Several values for one entry are separate records, joined by “and”; a condition that tells them apart may be missing. Equal values may be shown once. Read-outs that look alike come from different tables or passages of the source.

Assays:
S. aureus (sensitive) = test: In vitro activity (geometric mean MIC, serial dilution); format: cell-based; settings: Staphylococcus aureus, read-out: Geometric Mean MIC
rabbits = test: Preliminary nephrotoxicity study; format: in vivo; settings: two rabbits, 100 mg./kg. intravenously
Procedure: A preliminary nephrotoxicity study was carried out by administration of the test compound to a group of two rabbits at 100 mg./kg. intravenously.

Providencia sp. = test: In vitro activity (geometric mean MIC, serial dilution); format: cell-based; settings: 5 strains, Mueller-Hinton agar, inoculum 10^4 dilution, MIC cutoff 200 mcg./ml., read-out: Geometric Mean MIC
Proteus (indole-) = test: as above; format: cell-based; settings: read-out: Geometric Mean MIC
Enterobacter (sensitive) = test: as above; format: cell-based; settings: 3 strains, Mueller-Hinton agar, inoculum 10^4 dilution, MIC cutoff 200 mcg./ml., read-out: Geometric Mean MIC
Klebsiella sp. = test: as above; format: cell-based; settings: read-out: Geometric Mean MIC
Proteus (indole +) = test: as above; format: cell-based; settings: read-out: Geometric Mean MIC
S. pyogenes = test: as above; format: cell-based; settings: Streptococcus pyogenes; 10 strains; Mueller-Hinton agar, inoculum 10^4 dilution; MIC cutoff 200 mcg./ml.
[1] = system: E. coli (Penicillinase +); test: as above; format: cell-based; settings: Escherichia coli; 7 strains; Mueller-Hinton agar, inoculum 10^4 dilution; MIC cutoff 200 mcg./ml.; read-out: Geometric Mean MIC
[2] = system: S. aureus (Methicillin-R); test: as above; format: cell-based; settings: Staphylococcus aureus; 15 strains; Mueller-Hinton agar, inoculum 10^4 dilution; MIC cutoff 200 mcg./ml.
[3] = system: Miscellaneous (Salmonella, Shigella, Citrobacter); test: microbe, parasite or virus in culture; settings: read-out: Geometric Mean MIC
D. pneumoniae = test: In vitro activity (geometric mean MIC, serial dilution); format: cell-based; settings: Streptococcus pneumoniae; 9 strains; Mueller-Hinton agar, inoculum 10^4 dilution; MIC cutoff 200 mcg./ml.
S. marcescens = test: as above; format: cell-based; settings: Serratia marcescens; 16 strains; Mueller-Hinton agar, inoculum 10^4 dilution; MIC cutoff 200 mcg./ml.; read-out: Geometric Mean MIC
[4] = system: S. aureus penicillinase+); test: as above; format: cell-based; settings: Staphylococcus aureus, read-out: Geometric Mean MIC
S. aureus Smith = test: In vivo activity (Mice, sc); settings: several determinations listed; for ED50: Staphylococcus aureus, read-out: PD50
From the text: (§1) |In vivo Activity of BB-[…] and Related Compounds (Mice, sc) | (PD50 (mgm./kg.)

E. coli Juhl = test: In vivo activity (Mice, sc); settings: several determinations listed; for ED50: Escherichia coli, read-out: PD50
From the text: as §1

E. coli (sensitive) = test: In vitro activity (geometric mean MIC, serial dilution); format: cell-based; settings: Escherichia coli, read-out: Geometric Mean MIC
[5] = system: Enterobacter (Cephalosporinase +); test: as above; format: cell-based; settings: 7 strains, Mueller-Hinton agar, inoculum 10^4 dilution, MIC cutoff 200 mcg./ml.
[6] = system: Proteus (indole +, cephalosporinase +); test: as above; format: cell-based; settings: 5 strains; Mueller-Hinton agar, inoculum 10^4 dilution; MIC cutoff 200 mcg./ml.; read-out: Geometric Mean MIC
[7] = system: 51 gram-positive and 96 gram-negative bacteria; test: In vitro activity against 147 test organisms (overall comparison); format: cell-based; settings: compared with BB-S483 and BB-S469, respectively
Procedure: The MIC's were determined by the serial dilution method using Mueller-Hinton agar against 51 gram-positive and 96 gram-negative bacteria. The 147 test organisms were classified into 16 groups according to the genera and the types of antibiotic resistance, 5 groups for gram-positive and 11 for gram-negative bacteria.

Row | SMILES | MIC (S. aureus (sensitive)) | MIC (Providencia sp.) | MIC (Enterobacter (sensitive)) | MIC (Proteus (indole +)) | MIC (S. pyogenes) | MIC [1] | MIC [2] | MIC [3] | MIC (D. pneumoniae) | MIC (S. marcescens) | MIC [4] | ED50 (S. aureus Smith) | ED50 (E. coli Juhl) | MIC [5] | MIC [6] | other results
1 | NCc1ccccc1CC(=O)N[C@@H]1C(=O)N2C(C(=O)O)=C(CSc3ccc4nn(CC(=O)O)c(=O)n4n3)CS[C@H]12 [BB-S469] | 0.4 µg/mL (≈ 0.683 µM) | 4.2 µg/mL (≈ 7.17 µM) | 1 µg/mL (≈ 1.71 µM) | 0.5 µg/mL (≈ 0.854 µM) | 0.05 µg/mL (≈ 0.0854 µM) | 11 µg/mL (≈ 18.8 µM) | 30 µg/mL (≈ 51.2 µM) | 0.7 µg/mL (≈ 1.2 µM) | 0.03 µg/mL (≈ 0.0512 µM) | 130 µg/mL (≈ 222 µM) | 1.2 µg/mL (≈ 2.05 µM) | 0.19 mg/kg | 0.19 mg/kg | 4.7 µg/mL (≈ 8.03 µM) | 11 µg/mL (≈ 18.8 µM) | nephrotoxic potential (rabbits): little nephrotoxic potential; MIC (Proteus (indole-); 6 strains, Mueller-Hinton agar, inoculum 10^4 dilution, MIC cutoff 200 mcg./ml.): 0.6 µg/mL (≈ 1.02 µM); MIC (Klebsiella sp.): 0.9 µg/mL (≈ 1.54 µM); PD50 (S. aureus Smith): 0.16 mgm./kg. and 0.29 mgm./kg. and 0.2 mgm./kg.; PD50 (E. coli Juhl): 0.24 mgm./kg. and 0.15 mgm./kg.; MIC (E. coli (sensitive)): 0.3 µg/mL (≈ 0.512 µM)
2 | CNCc1ccsc1CC(=O)N[C@@H]1C(=O)N2C(C(=O)O)=C(CSc3ccc4nn(CC(=O)O)c(=O)n4n3)CS[C@H]12 [BB-S472, 7-(3-Methylaminomethyl-2-thienylacetamido)-3-(2-carboxymethyl-2,3-dihydro-s-triazolo[4,3-b]pyridazin-3-on-6-ylthiomethyl)-3-cephem-4-carboxylic Acid] | 0.4 µg/mL (≈ 0.66 µM) | 4.8 µg/mL (≈ 7.92 µM) | 1.3 µg/mL (≈ 2.15 µM) | 0.3 µg/mL (≈ 0.495 µM) | 0.05 µg/mL (≈ 0.0826 µM) | 15 µg/mL (≈ 24.8 µM) | 58 µg/mL (≈ 95.8 µM) | 0.4 µg/mL (≈ 0.66 µM) | 0.05 µg/mL (≈ 0.0826 µM) | 200 µg/mL (≈ 330 µM) | 0.9 µg/mL (≈ 1.49 µM) | 0.12 mg/kg | 0.19 mg/kg | 3.2 µg/mL (≈ 5.28 µM) | 8.3 µg/mL (≈ 13.7 µM) | MIC (Proteus (indole-)): 0.3 µg/mL (≈ 0.495 µM); MIC (Klebsiella sp.; 12 strains, Mueller-Hinton agar, inoculum 10^4 dilution, MIC cutoff 200 mcg./ml.): 0.8 µg/mL (≈ 1.32 µM); overall in vitro activity vs. non-N-methylated analogs [7]: better overall activity than their non-N-methylated analogs; MIC (E. coli (sensitive); 13 strains, Mueller-Hinton agar, inoculum 10^4 dilution, MIC cutoff 200 mcg./ml.): 0.2 µg/mL (≈ 0.33 µM)
